These results are taken from patent US20060094749A1, “Substituted pyridoxines as anti-platelet agents” (Medicure International Inc., priority 2004, published 2006).

Common to all, as to format: cell-based
Test [1] has as its system platelets (platelet rich plasma). Description: Inhibition of platelet aggregation, ADP as agonist. To be noted: compound 500 μM, ADP 4 μM, human PRP, read-out: % Reduction in Aggregation, ADP (4 μM). On the procedure:
(§1) Platelet rich plasma (PRP) was obtained by drawing whole blood from normal human donors (not on any medication) into sodium citrate tubes (3.2%), and centrifuging at 160 xg for about 10 minutes. Platelet poor plasma (PPP) was obtained by centrifuging the remainder of the sample after the platelets were removed at 800 xg for about 10 minutes. The PRP was adjusted to a count of 280×10^9/L using a mixture of PRP and PPP. The platelets (200 μL) were incubated with the test compounds (25 μL) adjusted to various concentrations (50, 100, 250, and 500 μM) for about 30 minutes at room temperature (approximate final platelet count in the incubation mixture of 250×10^9/L). The samples were incubated for about 3 minutes at about 37° C., and then transferred to the mixing wells of a Chrono-log 4 channel aggregometer (Chrono-log Corp., Havertown, Pa.). After baselines were established, the agonist (25 μL of 40 μM ADP (Sigma, St. Louis, Mo.) or 25 μL of 50 μg/mL and 10 μg/mL collagen (Helena Laboratories, Beaumont, Tex.) or 25 μL of 120 μM thrombin receptor activating peptide (TRAP) (Sigma)) was then added. Aggregation was monitored for 5 minutes at 37° C. with stirring (1000 rpm). The amplitude and slope of each tracing were calculated to determine the amount of aggregation. Control samples were performed using only solvent. The % reduction in aggregation was calculated for each sample compared to the proper solvent control.

Test [2] has the same test system. Put plainly: Inhibition of platelet aggregation, thrombin receptor activating peptide (TRAP) as agonist. To be noted: compound 500 μM, TRAP 12 μM, human PRP, read-out: % Reduction in Aggregation, TRAP (12 μM). On the procedure: as §1
Test [3] shares this test system. Put plainly: Inhibition of platelet aggregation, collagen as agonist. The note with it: compound 500 μM, human PRP. On the procedure:
as §1

For `Cc1ncc(CCNC(=O)c2cccc(C(=N)N)c2)c(CO)c1O` [Compound 61, 3-Carbamimidoyl-N-[2-(5-hydroxy-4-hydroxymethyl-6-methyl-pyridin-3-yl)-ethyl]-benzamide], the inhibition at 500 µM was 2% in test [1]; 0% in test [2]; 0% in test [3] (collagen 1 μg/mL, read-out: % Reduction in Aggregation, Collagen (1 μg/mL)); 10% in test [3] (collagen 5 μg/mL, read-out: % Reduction in Aggregation, Collagen (5 μg/mL)).
